Assay results taken from patent US20080268028A1, “Lyophilization of virosomes” (Pevion Biotech Ltd., priority 2004, published 2008).

Test: Virosomal fusion activity before and after lyophilization (FRET assay)
Conditions: cationic lipid as integral virosomal membrane component; after lyophilization and reconstitution
Experimental: FRET Assay: For in vitro fusion measurements by fluorescence resonance energy transfer (FRET) (Struck et al., Biochemistry 20(14):4093-99, 1981; Loyter et al., Methods Biochem. Anal. 33:129-64, 1988), the following assay was developed: 0.75 mol % of Bodipy 530/550-DHPE and 0.25 mol % of N-Rh-DHPE were incorporated into liposomes consisting of PC/DPPG (70:30). Fluorescence measurements were carried out at discrete temperatures between 4° C. and 42° C. in 5 mM sodium phosphate buffer pH 7.5, 100 mM NaCl, in a final volume of 0.8 ml in 2.5 ml PMMA micro-cuvettes (VWR, Switzerland) under continuous stirring. […] The increase in fluorescence was recorded every 5 seconds at excitation and emission wavelengths of 538 nm and 558 nm, respectively, with an excitation slit of 2.5 nm and an emission slit of 15.0 nm. Measurements were carried out with an LS 55 Luminescence spectrometer (Perkin Elmer Instruments, USA) equipped with a thermostated cuvette holder and a magnetic stirring device. The maximal fluorescence at infinite probe dilution was reached after addition of Triton X-100 (0.5% v/v final concentration). For calibration of the fluorescence scale the initial residual fluorescence of the liposomes was set to zero and the fluorescence at infinite probe dilution to 100%.

For `CC(C)CCC[C@@H](C)[C@H]1CC[C@H]2[C@@H]3CC=C4C[C@@H](OC(=O)NCC[N+](C)(C)C)CC[C@]4(C)[C@H]3CC[C@]12C.[Cl-]` [TC-Chol, 3β[N-(N′,N′,N′-trimethylammonioethane)-carbamoyl]cholesterol chloride], the “preservation of virosomal fusion-activity” value was “superior properties in preserving virosomal fusion-activity”.
With `CC(C)CCC[C@@H](C)[C@H]1CC[C@H]2[C@@H]3CC=C4C[C@@H](OC(=O)NCCN(C)C)CC[C@]4(C)[C@H]3CC[C@]12C.Cl` [DC-Chol, 3β[N-(N′,N′-dimethylammonioethane)-carbamoyl]cholesterol chloride] the “preservation of virosomal fusion-activity” value was “superior properties in preserving virosomal fusion-activity”.
